Source: PubChem BioAssay AID624472 (The Scripps Research Institute Molecular Screening Center, 2012)

Target: Monoacylglycerol lipase ABHD6 (Mus musculus) (UniProt Q8R2Y0)
Assay: ABHD6 inhibition in mouse proteome, late-stage follow-up, selectivity assay for DAGLb inhibitor project, biochemical, gel-based competitive ABPP, fluorescence, enantiomers (AID 624472)
Conditions: at 10 µM (top of the series)

Sequence of Monoacylglycerol lipase ABHD6 (Mus musculus) (Q8R2Y0 whole entry, looked up): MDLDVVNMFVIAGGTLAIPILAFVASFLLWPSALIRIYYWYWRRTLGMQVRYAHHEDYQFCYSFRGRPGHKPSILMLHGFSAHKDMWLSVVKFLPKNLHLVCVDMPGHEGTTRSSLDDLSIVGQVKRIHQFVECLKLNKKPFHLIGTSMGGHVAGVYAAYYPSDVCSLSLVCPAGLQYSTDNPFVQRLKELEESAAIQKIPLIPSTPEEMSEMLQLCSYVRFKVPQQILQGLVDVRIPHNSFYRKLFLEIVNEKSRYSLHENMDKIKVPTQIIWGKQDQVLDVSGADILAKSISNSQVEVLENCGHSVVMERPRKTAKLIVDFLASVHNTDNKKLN

`O=C(N1CCCCC1Cc1ccccc1)n1cc(-c2ccc(Br)cc2)nn1` (stereo unspecified) was tested, and the inhibition was 100%.
